Source: ChEMBL document CHEMBL1151989, “Antineoplastic agents. 578. Synthesis of stilstatins 1 and 2 and their water-soluble prodrugs” (J Nat Prod, 2009)
Converted amounts (≈) assume the structure as drawn.

Legend:
SF-268 = experiment: Antitumor activity against human SF268 cells by sulforhodamine B assay; type: functional
KM-20L2 = experiment: Antitumor activity against human KM20L2 cells by sulforhodamine B assay; type: functional
BXPC-3 = experiment: Antitumor activity against human BxPC3 cells by sulforhodamine B assay; type: functional
P388 = experiment: In vitro growth inhibition against mouse P388 cells
MCF7 = experiment: Antitumor activity against human MCF7 cells by sulforhodamine B assay; type: functional
DU-145 = experiment: Antitumor activity against human DU145 cells by sulforhodamine B assay; type: functional
NCI-H460 = experiment: Antitumor activity against human NCI-H460 cells by sulforhodamine B assay; type: functional
SW-1736 = experiment: Antitumor activity against human SW1736 cells by sulforhodamine B assay; type: functional
[1] = (§1) Antitumor activity against human KAT4 cells by sulforhodamine B assay; type: functional; details: KAT-4
KAT-4 = experiment: as §1; type: functional
[2] = Aqueous solubility of compound in water; type: physicochemical

Molecule	GI50 (BXPC-3)	GI50 (MCF7)	GI50 (DU-145)	GI50 (NCI-H460)	GI50 (SW-1736)	GI50 (SF-268)	GI50 (KM-20L2)	ED50 (P388)	GI50 [1]	GI50 (KAT-4)	solubility [2]
COc1cc(/C=C\c2ccc(OC)c(OP(=O)([O-])[O-])c2OP(=O)([O-])[O-])cc(OP(=O)([O-])[O-])c1OC.[Na+].[Na+].[Na+].[Na+].[Na+].[Na+]	1.2 µg/mL	0.3 µg/mL	0.26 µg/mL	0.3 µg/mL	–	0.34 µg/mL	3.1 µg/mL	0.14 µg/mL	–	–	–
COc1ccc(/C=C\c2cc(OC)c3c(c2)OCO3)cc1O [Combretastatin A-2]	0.014 µg/mL (≈ 0.0466 µM)	0.0042 µg/mL (≈ 0.014 µM)	0.0054 µg/mL (≈ 0.018 µM)	0.043 µg/mL (≈ 0.143 µM)	–	–	0.47 µg/mL (≈ 1.57 µM)	0.016 µg/mL (≈ 0.0533 µM)	–	–	–
COc1cc(/C=C\c2ccc(OC)c(OP(=O)([O-])[O-])c2OP(=O)([O-])[O-])cc(OP(=O)([O-])[O-])c1OC.[Rb+].[Rb+].[Rb+].[Rb+].[Rb+].[Rb+]	> 10 µg/mL	3.9 µg/mL	3.9 µg/mL	3.3 µg/mL	–	4.3 µg/mL	> 10 µg/mL	0.26 µg/mL	–	–	–
COc1ccc(/C=C\c2cc(OC)c3c(c2)OCO3)cc1OP(=O)([O-])[O-].[Na+].[Na+]	2.1 µg/mL	0.045 µg/mL	0.053 µg/mL	0.41 µg/mL	–	–	3.8 µg/mL	0.025 µg/mL	–	–	–
COc1cc(/C=C\c2ccc(OC)c(OP(=O)([O-])[O-])c2OP(=O)([O-])[O-])cc(OP(=O)([O-])[O-])c1OC.[Zn+2].[Zn+2].[Zn+2]	> 10 µg/mL	3.5 µg/mL	4.6 µg/mL	3.5 µg/mL	1.3 µg/mL	4.5 µg/mL	> 10 µg/mL	0.15 µg/mL	> 10 µg/mL	–	–
COc1cc(/C=C\c2ccc(OC)c(OP(=O)([O-])[O-])c2OP(=O)([O-])[O-])cc(OC)c1OC.[Na+].[Na+].[Na+].[Na+]	> 10 µg/mL	–	2.7 µg/mL	3.3 µg/mL	–	–	> 10 µg/mL	0.3 µg/mL	–	–	–
Manganese Stilstatin 2 2',3,3'-O-Triphosphate	> 10 µg/mL	> 10 µg/mL	> 10 µg/mL	0.51 µg/mL	1.7 µg/mL	3.6 µg/mL	> 10 µg/mL	–	–	> 10 µg/mL	–
COc1ccc(/C=C\c2cc(OC)c(OC)c(OC)c2)cc1O [COMBRETASTATIN A4]	0.39 µg/mL (≈ 1.23 µM)	–	0.0008 µg/mL (≈ 0.00253 µM)	0.0006 µg/mL (≈ 0.0019 µM)	–	–	0.34 µg/mL (≈ 1.07 µM)	0.0009 µg/mL (≈ 0.00284 µM)	–	–	–
COc1cc(/C=C\c2ccc(OC)c(OP(=O)([O-])[O-])c2OP(=O)([O-])[O-])cc2c1OCO2.[Na+].[Na+].[Na+].[Na+]	> 10 µg/mL	3.4 µg/mL	2.5 µg/mL	2.8 µg/mL	–	2.8 µg/mL	> 10 µg/mL	1.4 µg/mL	–	–	–
COc1cc(/C=C\c2ccc(OC)c(OP(=O)([O-])[O-])c2OP(=O)([O-])[O-])cc(OP(=O)([O-])[O-])c1OC.[Mg+2].[Mg+2].[Mg+2]	5.9 µg/mL	0.5 µg/mL	0.42 µg/mL	0.32 µg/mL	> 10 µg/mL	0.63 µg/mL	< 10 µg/mL	0.064 µg/mL	4.7 µg/mL	–	–
COc1cc(/C=C\c2ccc(OC)c(OP(=O)([O-])[O-])c2OP(=O)([O-])[O-])cc(OP(=O)([O-])[O-])c1OC.[Ca+2].[Ca+2].[Ca+2]	3.6 µg/mL	0.38 µg/mL	0.37 µg/mL	0.35 µg/mL	–	0.46 µg/mL	5.2 µg/mL	0.14 µg/mL	–	–	–
COc1cc(/C=C\c2ccc(OC)c(OP(=O)([O-])[O-])c2OP(=O)([O-])[O-])cc2c1OCO2.[Li+].[Li+].[Li+].[Li+]	> 10 µg/mL	1.2 µg/mL	2.1 µg/mL	2.7 µg/mL	–	2.4 µg/mL	> 10 µg/mL	0.3 µg/mL	–	–	–
COc1ccc(/C=C\c2cc(OC)c(OC)c(OC)c2)cc1OP(=O)([O-])[O-].[Na+].[Na+] [FOSBRETABULIN DISODIUM]	0.23 µg/mL	–	0.0007 µg/mL	0.0004 µg/mL	–	–	–	0.0029 µg/mL	–	–	20 mg/mL
COc1cc(/C=C\c2ccc(OC)c(OP(=O)([O-])[O-])c2OP(=O)([O-])[O-])cc2c1OCO2.[K+].[K+].[K+].[K+]	5.3 µg/mL	0.39 µg/mL	0.93 µg/mL	1.4 µg/mL	> 10 µg/mL	0.65 µg/mL	> 10 µg/mL	0.17 µg/mL	9.6 µg/mL	–	–

Continued, in another order:

GI50 (BXPC-3)	GI50 (MCF7)	GI50 (DU-145)	GI50 (NCI-H460)	GI50 (SW-1736)	Molecule	GI50 (SF-268)	GI50 (KM-20L2)	ED50 (P388)	GI50 [1]	GI50 (KAT-4)	solubility [2]
0.75 µg/mL	0.15 µg/mL	0.22 µg/mL	0.3 µg/mL	–	COc1cc(/C=C\c2ccc(OC)c(OP(=O)([O-])[O-])c2OP(=O)([O-])[O-])cc(OP(=O)([O-])[O-])c1OC.[K+].[K+].[K+].[K+].[K+].[K+]	0.3 µg/mL	2.9 µg/mL	0.12 µg/mL	–	–	–
> 10 µg/mL	> 10 µg/mL	> 10 µg/mL	> 10 µg/mL	–	COc1cc(/C=C\c2ccc(OC)c(O[Si](C)(C)C(C)(C)C)c2O[Si](C)(C)C(C)(C)C)cc2c1OCO2	> 10 µg/mL	> 10 µg/mL	>10 µg/mL	–	–	–
> 10 µg/mL	> 10 µg/mL	> 10 µg/mL	> 10 µg/mL	–	COc1cc(/C=C\c2ccc(OC)c(O[Si](C)(C)C(C)(C)C)c2O[Si](C)(C)C(C)(C)C)cc(O[Si](C)(C)C(C)(C)C)c1OC	> 10 µg/mL	> 10 µg/mL	>100 µg/mL	–	–	–
5.8 µg/mL	0.36 µg/mL	0.82 µg/mL	0.35 µg/mL	–	COc1cc(/C=C\c2ccc(OC)c(OP(=O)([O-])[O-])c2OP(=O)([O-])[O-])cc(OP(=O)([O-])[O-])c1OC.[Li+].[Li+].[Li+].[Li+].[Li+].[Li+]	0.76 µg/mL	6.1 µg/mL	0.028 µg/mL	–	–	–
1.8 µg/mL (≈ 5.65 µM)	1.6 µg/mL (≈ 5.03 µM)	1.8 µg/mL (≈ 5.65 µM)	1.5 µg/mL (≈ 4.71 µM)	–	COc1ccc(/C=C\c2cc(O)c(OC)c(OC)c2)c(O)c1O [STILSTATIN 2]	1.6 µg/mL (≈ 5.03 µM)	1.9 µg/mL (≈ 5.97 µM)	1.7 µg/mL (≈ 5.34 µM)	–	–	–
4.4 µg/mL (≈ 13.2 µM)	–	0.17 µg/mL (≈ 0.512 µM)	0.74 µg/mL (≈ 2.23 µM)	–	COc1ccc(/C=C\c2cc(OC)c(OC)c(OC)c2)c(O)c1O [COMBRETASTATIN A-1]	–	–	0.3 µg/mL (≈ 0.903 µM)	–	–	–
